Test results: ChEMBL document CHEMBL5620419, “Discovery of new Lenalidomide derivatives as potent and selective GSPT1 degraders” (Eur J Med Chem, 2023)

Molecular target: Protein cereblon/Eukaryotic peptide chain release factor GTP-binding subunit ERF3A (Homo sapiens, UniProt P15170+Q96SW2)
Test: PROTAC activity at CRBN/GSPT1 in human U-937 cells assessed as degradation of GSPT1 measured after 6 hrs by Western blot analysis
Format: cell-based

Protein cereblon/Eukaryotic peptide chain release factor GTP-binding subunit ERF3A, sequence (Q96SW2 whole entry): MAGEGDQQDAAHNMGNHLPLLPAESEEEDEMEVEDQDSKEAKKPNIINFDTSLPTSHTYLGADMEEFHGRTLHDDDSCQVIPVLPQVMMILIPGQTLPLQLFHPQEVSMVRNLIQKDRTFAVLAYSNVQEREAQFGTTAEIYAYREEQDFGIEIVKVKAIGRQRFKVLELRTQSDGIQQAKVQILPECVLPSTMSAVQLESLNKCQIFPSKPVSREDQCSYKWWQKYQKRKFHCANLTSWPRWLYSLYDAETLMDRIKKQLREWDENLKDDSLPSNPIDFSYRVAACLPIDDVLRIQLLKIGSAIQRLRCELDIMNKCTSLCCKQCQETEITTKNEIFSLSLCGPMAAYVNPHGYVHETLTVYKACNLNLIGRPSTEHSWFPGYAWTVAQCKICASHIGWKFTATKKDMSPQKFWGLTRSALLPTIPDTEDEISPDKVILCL
Protein cereblon/Eukaryotic peptide chain release factor GTP-binding subunit ERF3A, sequence (P15170 whole entry): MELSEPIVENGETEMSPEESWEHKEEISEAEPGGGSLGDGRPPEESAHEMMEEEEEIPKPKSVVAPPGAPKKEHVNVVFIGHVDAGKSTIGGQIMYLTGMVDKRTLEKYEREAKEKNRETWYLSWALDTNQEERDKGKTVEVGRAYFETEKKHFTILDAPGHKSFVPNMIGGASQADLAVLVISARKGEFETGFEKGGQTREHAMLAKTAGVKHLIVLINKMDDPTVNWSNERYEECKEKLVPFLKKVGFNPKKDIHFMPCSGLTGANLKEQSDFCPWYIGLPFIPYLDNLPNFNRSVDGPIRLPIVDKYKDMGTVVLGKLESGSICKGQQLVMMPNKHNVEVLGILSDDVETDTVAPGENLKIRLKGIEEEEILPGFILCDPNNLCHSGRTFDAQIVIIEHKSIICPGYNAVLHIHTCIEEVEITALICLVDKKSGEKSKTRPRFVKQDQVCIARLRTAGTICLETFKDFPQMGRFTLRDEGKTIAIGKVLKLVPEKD

Structure (SMILES) | EC50
Cc1ccc(NC(=O)COc2ccc3c(c2)C(=O)N(C2CCC(=O)NC2=O)C3)cc1Cl (centres undefined) | > 10 µM
Cc1ccc(NC(=O)/C=C/c2cccc3c2CN(C2CCC(=O)NC2=O)C3=O)cc1Cl (centres undefined) | 3.06 µM
Cc1cc(NC(=O)CCc2ccc3c(c2)C(=O)N(C2CCC(=O)NC2=O)C3)ccc1Cl (centres undefined) | 0.143 µM
Cc1ccc(NC(=O)/C=C/c2ccc3c(c2)C(=O)N(C2CCC(=O)NC2=O)C3)cc1Cl (centres undefined) | > 10 µM
